Measured values reported in ChEMBL document CHEMBL1153491, “Discovery of CYT997: a structurally novel orally active microtubule targeting agent” (Bioorg Med Chem Lett, 2009).
Active and inactive are the calls of the source. The rule behind the calls is not given here.

Assays:
PC-3 [1] = experiment: Cytotoxicity against human PC3 cells after 72 hrs by MTT assay; format: functional, cell-based; conditions: PC-3, 72 h
DU-145 = experiment: Cytotoxicity against human DU145 cells after 72 hrs by MTT assay; format: functional, cell-based; conditions: DU-145, 72 h
PC-3 [2] = experiment: Cell cycle arrest in human PC3 cells assessed as accumulation in G2/M phase after 1 hr; format: functional, cell-based
[3] = Half life in rat at 5 mg/kg, iv in presence of captisol; format: ADME, organism-based; parameters: dose 5 mg/kg, route intravenous; conditions: in vivo
PC-3 [4] = experiment: Disruption of microtubule network in human PC3 cells after 1 hr; format: functional, cell-based
Bos taurus = species: Bos taurus; experiment: Inhibition of bovine tubulin polymerization at 3 uM
[5] = Apparent volume of distribution in rat at 5 mg/kg, iv in presence of captisol; format: ADME, organism-based; parameters: dose 5 mg/kg, route intravenous; conditions: in vivo, read-out: Vz
[6] = Clearance in rat at 5 mg/kg, iv in presence of captisol; format: ADME, organism-based; parameters: dose 5 mg/kg, route intravenous; conditions: in vivo
[7] = Cmax in rat at 25 mg/kg, po; format: ADME, organism-based; parameters: dose 25 mg/kg, route oral; conditions: in vivo
[8] = Half life in rat at 5 mg/kg, iv; format: ADME, organism-based; parameters: dose 5 mg/kg, route intravenous; conditions: in vivo
[9] = Clearance in rat at 5 mg/kg, iv; format: ADME, organism-based; parameters: dose 5 mg/kg, route intravenous; conditions: in vivo
[10] = Oral bioavailability in rat at 25 mg/kg, po; format: ADME, organism-based; conditions: in vivo
[11] = Apparent volume of distribution in rat at 5 mg/kg, iv; format: ADME, organism-based; parameters: dose 5 mg/kg, route intravenous; conditions: in vivo, read-out: Vz

| SMILES | IC50 (PC-3 [1]) | IC50 (DU-145) | other results |
| --- | --- | --- | --- |
| CCC[C@H](Nc1cc(-c2ccc(NC(=O)NCC)c(OC)c2)ncn1)c1cccnc1 | 100 nM | 100 nM | – |
| CCCC(Nc1cncc(-c2ccc(O)c(OC)c2)n1)c1ccc(OC)cc1 (stereo not drawn) | 3000 nM | 3000 nM | – |
| CCCC(Nc1cncc(-c2ccc(NC(=O)NCCN(C)C)c(OC)c2)n1)c1cccnc1 (stereo not drawn) | 1000 nM | 1000 nM | – |
| CCC[C@H](Nc1cc(C)nc(-c2ccc(NC(=O)NCC)c(OC)c2)n1)c1cccnc1 | 200 nM | 200 nM | – |
| CCCC(Nc1cncc(-c2ccc(O)c(OC)c2)n1)c1cccnc1 (stereo not drawn) | 300 nM | 600 nM | – |
| CCCC(Nc1cncc(-c2ccc(NC(=O)NCC)c(OC)c2)n1)c1cccnc1 (stereo not drawn) | 40 nM | 60 nM | – |
| CCCC(=O)Nc1ccc(-c2cncc(NC(CCC)c3cccnc3)n2)cc1OC (stereo not drawn) | 600 nM | – | – |
| CCCC(Nc1cncc(-c2ccc(O)c(OC)c2)n1)c1ccccc1 (stereo not drawn) | 160 nM | 500 nM | – |
| CC[C@H](Nc1cncc(-c2ccc(O)c(OC)c2)n1)c1ccccc1 | 10000 nM | 10000 nM | – |
| CCC[C@H](Nc1cncc(-c2ccc(NC(=O)NCC)c(OC)c2)n1)c1cccnc1 | – | – | Activity (PC-3 [2]): Active; half-life [3]: 0.6 h; Activity (PC-3 [4]): Active; inhibition (Bos taurus): Active; Vd [5]: 7.1 L/kg; clearance [6]: 127 mL/min/kg |
| CCCC(Nc1cncc(-c2ccc(O)c(OC)c2)n1)c1cccc(OC)c1 (stereo not drawn) | 10000 nM | 1000 nM | – |
| CCC[C@H](Nc1ccnc(-c2ccc(NC(=O)NCC)c(OC)c2)n1)c1cccnc1 | 150 nM | 200 nM | – |
| CCC[C@H](Nc1nc(-c2ccc(NC(=O)NCC)c(OC)c2)ncc1C)c1cccnc1 [LEXIBULIN] | 60 nM | 60 nM | Cmax [7]: 9.4 µM; half-life [8]: 1.6 h; clearance [9]: 36.8 mL/min/kg; bioavailability [10]: 78%; Vd [11]: 5.2 L/kg |
| CCCC(Nc1cncc(-c2ccc(NC(C)=O)c(OC)c2)n1)c1cccnc1 (stereo not drawn) | 5000 nM | – | – |
| CCC[C@H](Nc1cncc(-c2ccc(O)c(OC)c2)n1)c1ccccc1 | 160 nM | 200 nM | – |
| COc1cc(-c2cncc(N[C@@H](C)c3ccccc3)n2)ccc1O | 10000 nM | 3000 nM | – |
| CCCC(Nc1cncc(-c2ccc(O)c(OC)c2)n1)c1ccc(F)cc1 (stereo not drawn) | – | 4000 nM | – |
| CCCC(Nc1cncc(-c2ccc(O)c(OC)c2)n1)c1ccc(Cl)cc1 (stereo not drawn) | 20000 nM | 10000 nM | – |
| CCC[C@H](Nc1cc(-c2ccc(NC(=O)NCC)c(OC)c2)nc(C)n1)c1cccnc1 | 80 nM | 100 nM | – |
| CCCC(Nc1cncc(-c2ccc(O)c(OC)c2)n1)c1cccc(Cl)c1 (stereo not drawn) | 1000 nM | 600 nM | – |
| CCCC(Nc1cncc(-c2ccc(NC(=O)NCC)c(CC)c2)n1)c1cccnc1 (stereo not drawn) | 160 nM | 100 nM | – |
| CCCC(Nc1cncc(-c2ccc(O)c(OCC)c2)n1)c1cccnc1 (stereo not drawn) | 1000 nM | – | – |
| CCCC(Nc1cncc(-c2ccc(O)c(OC)c2)n1)c1cccc(F)c1 (stereo not drawn) | 600 nM | 300 nM | – |
| CCCC(Nc1cncc(-c2ccc(O)c(OC(C)C)c2)n1)c1cccnc1 (stereo not drawn) | 10000 nM | 10000 nM | – |
